Experimental data published in patent publication US5712260A, “Estramustine formulations with improved pharmaceutical properties” (Pharmacia AB, priority 1994, dated 1998).
Structures can show the parent of a compound that is named as a salt.

What was measured:
[1] = oral administration; interaction with foods and drinks; cited from earlier work
[2] = Solubility / reprecipitation of estramustine derivative with cyclodextrins (general statements); assay type: physicochemical; conditions: for effects of reprecipitation induced by cations: calcium or other cations
[3] = Reprecipitation of EPS by calcium chloride in pH 3.1 buffer, EPS in solution assayed by UV spectroscopy (Example 1); assay type: physicochemical; conditions: 640 mcg/ml EPS, pH 3.1 HCl/KCl buffer (I=0.1)
Method: To a solution in a pH 3.1 HCl/KCl buffer (I=0.1), containing 640 mcg/ml of Estramustine-17-phosphate disodium salt (EPS), were added appropriate quantities of calcium chloride in order to have drug:salt molar ratios in the range from 1:0 to 1:1. The samples were filtered and the quantity of Estramustine-17-phosphate sodium salt in solution was assayed by UV spectroscopy.

[4] = EPS in solution after addition of calcium chloride to solution of EPS and cyclodextrin, pH 3.1, UV spectroscopy (Examples 2-4); assay type: physicochemical; conditions: about 1 mg/ml EPS
Method: (§1) The samples were filtered and the quantity of Estramustine-17-phosphate disodium salt in solution was assayed by UV spectroscopy.
as §1, §1

[5] = Solubilization by cyclodextrins of previously formed precipitate of EPS with calcium, pH 3.1, UV spectroscopy (Examples 5-7); assay type: physicochemical; conditions: about 1 mg/ml EPS, CD added to preformed precipitate
Method: The samples were filtered and the quantity of Estramustine disodium salt in solution was assayed by UV spectroscopy.
as §1, §1

| SMILES | reprecipitation of the drug [1] | effect of reprecipitation by anionic species ([2]; with cyclodextrins) | EPS in solution ([3]; EPS:CaCl2 molar ratio 1:0) [%] | EPS in solution ([3]; EPS:CaCl2 molar ratio 1:0.25) [%] | EPS in solution ([3]; EPS:CaCl2 molar ratio 1:0.5) [%] | EPS in solution ([3]; EPS:CaCl2 molar ratio 1:1) [%] | EPS in solution ([4]; EPS:CD:CaCl2 molar ratio 1:0:1 (no CD)) [%] | EPS in solution ([4]; EPS:CD:CaCl2 molar ratio 1:0:2 (no CD)) [%] | EPS in solution ([4]; EPS:CD:CaCl2 molar ratio 1:0:4 (no CD)) [%] | solubility of the drug itself ([2]; when mixed with cyclodextrins) | effects of reprecipitation induced by cations ([2]; with cyclodextrins, disodium salt) | EPS in solution ([5]; EPS:CaCl2:CD molar ratio 1:1:0 (no CD)) [%] | EPS in solution ([5]; EPS:CaCl2:CD molar ratio 1:2:0 (no CD)) [%] | EPS in solution ([5]; EPS:CaCl2:CD molar ratio 1:4:0 (no CD)) [%] | redissolution of already formed precipitate with calcium ([2]; with cyclodextrins) | passage in solution of the drug in the presence of calcium ions ([2]; with cyclodextrins, calcium ions in dissolution medium) | effects of reprecipitation induced by cations ([2]; with cyclodextrins) |
| --- | --- | --- | --- | --- | --- | --- | --- | --- | --- | --- | --- | --- | --- | --- | --- | --- | --- |
| C[C@H](N)C(=O)O[C@H]1CC[C@H]2[C@@H]3CCc4cc(OC(=O)N(CCCl)CCCl)ccc4[C@H]3CC[C@]12C [Estramustine-17-L-alaninate] | induced by anionic species, such as chlorine ions | avoiding any effect of reprecipitation by anionic species |  |  |  |  |  |  |  |  |  |  |  |  |  |  |  |
| C[C@]12CC[C@@H]3c4ccc(OC(=O)N(CCCl)CCCl)cc4CC[C@H]3[C@@H]1CC[C@@H]2OP(=O)(O)O [EPS, Estramustine-17-phosphate disodium salt] | induced by cations and in particular by calcium ions |  | 100 | 42 | 21 | 14 | 16 | 4 | 4 | does not change in a significant way | quite negligible | 16 | 4 | 4 |  |  |  |
| C[C@]12CC[C@@H]3c4ccc(OC(=O)N(CCCl)CCCl)cc4CC[C@H]3[C@@H]1CC[C@@H]2OP(=O)(O)O [Estramustine-17-phosphate] |  |  |  |  |  |  |  |  |  |  |  |  |  |  | redissolve the already formed precipitate | permit the passage in solution of the drug | avoid the reprecipitation |
